What follows are compounds tested against T1, hPRDM9 (amino acids 195-385) (Homo sapiens, UniProt Q9NQV7) (assay: PRDM9 biochemical assay (radiometric, 3[H] methyl transfer from SAM to biotinylated histone H3 peptide)). Conditions: 1 nM hPRDM9, 1 μM biotinylated H3(1-25)K4 peptide, 5 μM 3[H]-SAM, 55 μM un-labeled SAM, 25° C., 30 minutes.
T1 construct: 1.25 nM hPRDM9 (amino acids 195-385)
T1 sequence (Q9NQV7 195-385): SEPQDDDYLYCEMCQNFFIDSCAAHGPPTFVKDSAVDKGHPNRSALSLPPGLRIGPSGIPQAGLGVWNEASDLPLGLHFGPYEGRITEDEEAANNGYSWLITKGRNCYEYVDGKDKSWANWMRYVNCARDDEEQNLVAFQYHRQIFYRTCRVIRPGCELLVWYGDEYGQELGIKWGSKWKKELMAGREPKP
Description: The PRDM9 biochemical assay was carried out using a radiometric format involving the transfer of ^3[H] methyl group from S-adenosyl methionine (SAM) to a biotinylated histone H3 peptide (H3(1-25)K4). 10 mM compounds in DMSO were diluted 20 fold in assay buffer (10 mM Tris-HCl, pH 8.5, 10 mM DTT, and 0.01% Triton X-100) before adding […] to a well in a 384 well polypropylene microplate plate and adding 8 μl of reaction mix (1.25 nM hPRDM9 (amino acids 195-385), 1.25 μM biotinylated H3 peptide in assay buffer). The ^3[H]-SAM and cold SAM stock solutions were diluted to 50 μM and 550 μM respectively in assay buffer before aliquoting 1 μl of 50 μM ^3[H]-SAM, 550 μM SAM into each well to initiate the reaction. The assay was performed at 25° C. at the final concentrations of 1 nM hPRDM9, 1 μM peptide, 5 μM ^3[H]-SAM, and 55 μM un-labeled SAM in assay buffer. The reaction was quenched after 30 minutes by adding 25 μl 7.5 M Guanidine-HCl. Quenched reactions were transferred to streptavidin coated Flashplates, diluted two fold in assay buffer, incubated for 1 hour, and read on a Perkin Elmer Topcount instrument. Compound activity was expressed relative to activity of 0.5% (v/v) DMSO treated samples and fit to a four parameter logistic equation to determine IC50 values.

Point of comparison: `Cc1cc(N2CCC3C(CCN3c3nc(-c4cc(Cl)cc(Cl)c4)no3)C2)ccn1` (stereo not drawn) [Compound 218], IC50 35.5 µM. Against it:
- Cc1cc(NC2CC3(CCN(c4nc(-c5cc(Cl)cc(Cl)c5)no4)C3)C2)ccn1 (stereo not drawn) [Compound 154, 6-(3-(3,5-dichlorophenyl)-1,2,4-oxadiazol-5-yl)-N-(2-methylpyridin-4-yl)-6-azaspiro[3.4]octan-2-amine] — 10-fold lower, 3.45 µM
- Cc1cc(N2CC3(CC(NC(=O)Nc4cc(Cl)cc(Cl)c4)C3)C2)ccn1 [Compound 239, 1-(3,5-dichlorophenyl)-3-(2-(2-methylpyridin-4-yl)-2-azaspiro[3.3]heptan-6-yl)urea] — higher, ≥ 50 µM
- Cc1cc(N2CC3(CC(Nc4nc(-c5cc(Cl)cc(Cl)c5)no4)C3)C2)ccn1 [Compound 234] — 4.4-fold lower, 8.03 µM
- CCN1CCN(c2noc(-c3cc(OC)cc(OC)c3)n2)CC12CCN(c1ccnc(C)c1)CC2 [Compound 89] — 440-fold lower, 0.08 µM
- Cc1cc(NCC2CC(C)N(c3nc(-c4cc(Cl)cc(Cl)c4)no3)C2)ccn1 (stereo not drawn) [Compound 172] — 6.7-fold lower, 5.29 µM
- Cc1cc(NCC2=CCCN(c3nc(-c4cc(Cl)cc(Cl)c4)no3)C2)ccn1 [Compound 220] — 3.9-fold lower, 9.2 µM
- Cc1cc(N2CCC3(CC2)CN(c2nc(-c4cc(Cl)cc(Cl)c4)no2)CCO3)ccn1 [Compound 40] — 440-fold lower, 0.0803 µM
- Cc1cc(N2CCC3(CCCN(c4noc(-c5cccc(Cl)c5)n4)C3)CC2)ccn1 [Compound 88] — 590-fold lower, 0.06 µM
- COc1cc(OC)cc(-c2nc(N3CCCC4(CCN(c5ccnc(C)c5)CC4)C3)no2)c1 [Compound 85, 5-(3,5-dimethoxyphenyl)-3-(9-(2-methylpyridin-4-yl)-2,9-diazaspiro[5.5]undecan-2-yl)-1,2,4-oxadiazole] — 440-fold lower, 0.08 µM
- Cc1cc(N2CC3C(C2)C3Nc2nc(-c3cc(Cl)cc(Cl)c3)no2)ccn1 (stereo not drawn) [Compound 228] — within 1.5-fold, 34.3 µM
- COc1cc(OC)cc(-c2noc(N3CCN(C)C4(CN(c5ccnc(C)c5)C4)C3)n2)c1 [Compound 164] — 110-fold lower, 0.315 µM
- Cc1cc(NCC2CC(C)N(c3nc(-c4cc(Cl)cc(Cl)c4)no3)C2)ccn1 (stereo not drawn) [Compound 173] — 6.5-fold lower, 5.5 µM
- Cc1cc(N2CC3(CCCN(c4nc(-c5ccc(Cl)cc5)no4)C3)C2)ccn1 [Compound 144] — within 1.5-fold, 42.3 µM
- Cc1cc(NC2CCC3CN(c4nc(-c5cc(Cl)cc(Cl)c5)no4)CC32)ccn1 (stereo not drawn) [Compound 178] — 31-fold lower, 1.15 µM
- COc1cc(OC)cc(-c2noc(N3CCN(S(C)(=O)=O)C4(CCN(c5ccnc(C)c5)CC4)C3)n2)c1 [Compound 99] — 510-fold lower, 0.07 µM
- Cc1cc(NC(C)C2CCCN(c3nc(-c4cc(Cl)cc(Cl)c4)no3)C2)ccn1 (stereo not drawn) [Compound 11] — 1.8-fold lower, 19.7 µM
- N#Cc1cncc(N2CC3(CCCN(c4nc(-c5cc(Cl)cc(Cl)c5)no4)C3)C2)c1 [Compound 232] — 18-fold lower, 2 µM
- Cc1cc(NCCC2CN(c3nc(-c4cc(Cl)cc(Cl)c4)no3)CCO2)ccn1 (stereo not drawn) [Compound 170] — 89-fold lower, 0.4 µM
- Cc1cc(N2CCC(C3CCN(c4nc(-c5cc(Cl)cc(Cl)c5)no4)CC3)CC2)ccn1 [Compound 65] — 5.7-fold lower, 6.2 µM
- Cc1cc(N2CC3(CCCN(c4cc(-c5ccc(F)c(C(F)(F)F)c5)n[nH]4)C3)C2)ccn1 [Compound 135, 6-(3-(4-fluoro-3-(trifluoromethyl)phenyl)-1H-pyrazol-5-yl)-2-(2-methylpyridin-4-yl)-2,6-diazaspiro[3.5]nonane] — 1.7-fold lower, 21.1 µM
- Cc1cc(N2CCC3(CC2)CC3Nc2nc(-c3cc(Cl)cc(Cl)c3)no2)ccn1 (stereo not drawn) [Compound 80] — 13-fold lower, 2.83 µM
- COc1cc(OC)cc(-c2noc(N3CCOC4(CN(c5ccnc(C)c5)C4)C3)n2)c1 [Compound 139] — 90-fold lower, 0.393 µM
- COC(=O)c1cccc(-c2cc(N3CCCC4(CN(c5ccnc(C)c5)C4)C3)on2)c1 [Compound 129, methyl 3-(5-(2-(2-methylpyridin-4-yl)-2,6-diazaspiro[3.5]nonan-6-yl)isoxazol-3-yl)benzoate] — 1.9-fold lower, 19.1 µM
- COCCN1CCN(c2nc(-c3cc(OC)cc(OC)c3)no2)CC12CCN(c1ccnc(C)c1)CC2 [Compound 94] — 330-fold lower, 0.109 µM
- COc1cc(OC)cc(-c2noc(N3CCCC4(CCN(c5ccncc5OC)CC4)C3)n2)c1 [Compound 237] — 4.9-fold lower, 7.3 µM
- COc1ccc(-c2noc(N3CCCC4(CN(c5ccnc(C)c5)C4)C3)n2)cc1OC [Compound 145] — 7.6-fold lower, 4.7 µM
- Cc1cc(NC[C@H]2CCCN2c2nc(-c3cc(Cl)cc(Cl)c3)no2)ccn1 [Compound 12] — within 1.5-fold, 41.5 µM
- Cc1cc(N2CCC(C3CCN(c4nc(-c5cc(Cl)cc(Cl)c5)no4)C3)CC2)ccn1 (stereo not drawn) [Compound 77] — 13-fold lower, 2.63 µM
- Cc1cc(NC(=O)C2CCN(c3nc(-c4cc(Cl)cc(Cl)c4)no3)CC2)ccn1 [Compound 238, 1-(3-(3,5-dichlorophenyl)-1,2,4-oxadiazol-5-yl)-N-(2-methylpyridin-4-yl)piperidine-4-carboxamide] — higher, ≥ 50 µM
- Cc1cc(N2CC3(CCCN(c4nc(-c5cc(Cl)cc(Cl)c5)co4)C3)C2)ccn1 [Compound 118] — 2.1-fold lower, 16.6 µM
- CCOc1cc(OCC)cc(-c2noc(N3CCN(C)C4(CCN(c5ccnc(C)c5)CC4)C3)n2)c1 [Compound 96] — 340-fold lower, 0.103 µM
- Cc1cc(N2CCC3(CC2)CN(c2nc(-c4cc(OC5CC5)cc(OC5CC5)c4)no2)CCN3C)ccn1 [Compound 95] — 810-fold lower, 0.044 µM
- COc1cc(OC)cc(-c2noc(N3CCN(c4ccccc4)C4(CCN(c5ccnc(C)c5)CC4)C3)n2)c1 [Compound 100] — 250-fold lower, 0.14 µM
- Cc1cc(N2CC3(CCCN(CC(C)C(=O)c4cc(Cl)cc(Cl)c4)C3)C2)ccn1 (stereo not drawn) [Compound 127, 1-(3,5-dichlorophenyl)-2-methyl-3-(2-(2-methylpyridin-4-yl)-2,6-diazaspiro[3.5]nonan-6-yl)propan-1-one] — within 1.5-fold, 26.9 µM
- Cc1cc(N2CC[C@H](Nc3nc(-c4cc(Cl)cc(Cl)c4)no3)C[C@@H]2C)ccn1 [Compound 217] — within 1.5-fold, 29.2 µM
- Cc1cc(N2CCC(F)(CNc3nc(-c4cc(Cl)cc(Cl)c4)no3)CC2)ccn1 [Compound 8] — 44-fold lower, 0.804 µM
- COC(=O)c1cccc(-c2cc(N3CCCC4(CN(c5ccnc(C)c5)C4)C3)[nH]n2)c1 [Compound 130, methyl 3-(5-(2-(2-methylpyridin-4-yl)-2,6-diazaspiro[3.5]nonan-6-yl)-1H-pyrazol-3-yl)benzoate] — within 1.5-fold, 24.3 µM
- Cc1cc(N2CCC3(CC2)CCN(c2nc(-c4cc(Cl)cc(Cl)c4)no2)CC3)ccn1 [Compound 15] — within 1.5-fold, 31.6 µM
- Cc1cc(N2CCC3C(Nc4nc(-c5cc(Cl)cc(Cl)c5)no4)CCC32)ccn1 (mixture of isomers) [Compound 27] — within 1.5-fold, 36.4 µM
- Cc1cc(N2CCC3(CCCN(c4nc(-c5cc(Cl)cc(Cl)c5)no4)C3)C2)ccn1 (stereo not drawn) [Compound 223] — 2.9-fold lower, 12.1 µM
- COc1cc(OC)cc(-c2noc(N3CCCC4(CCN(c5cc(C)nc(F)c5)CC4)C3)n2)c1 [Compound 188] — within 1.5-fold, 45 µM
- COc1cc(OC)cc(-c2noc(N3CCN(CCO)C4(CCN(c5ccnc(C)c5)CC4)C3)n2)c1 [Compound 98] — 370-fold lower, 0.095 µM
- COc1cc(OC)cc(-c2noc(N3CC(F)(F)OC4(CCN(c5ccnc(C)c5)CC4)C3)n2)c1 [Compound 184] — 44-fold lower, 0.814 µM
- Cc1cc(N2CC3(CCCN(c4ccnc(-c5cc(Cl)cc(Cl)c5)c4)C3)C2)ccn1 [Compound 132, 6-(2-(3,5-dichlorophenyl)pyridin-4-yl)-2-(2-methylpyridin-4-yl)-2,6-diazaspiro[3.5]nonane] — 6.5-fold lower, 5.46 µM
- Cc1cc(N2CC3(CCCN(c4cc(-c5cccc(F)c5F)no4)C3)C2)ccn1 [Compound 133, 3-(2,3-difluorophenyl)-5-(2-(2-methylpyridin-4-yl)-2,6-diazaspiro[3.5]nonan-6-yl)isoxazole] — 2.1-fold lower, 17 µM
- Cc1cc(NCC2CCCN(c3nc(-c4cc(Cl)cc(Cl)c4)no3)C2)ccn1 (stereo not drawn) [Compound 221] — 6.6-fold lower, 5.38 µM
- Cc1cc(NC2CCCN(c3nc(-c4cc(Cl)cc(Cl)c4)no3)CC2)ccn1 (stereo not drawn) [Compound 74] — 31-fold lower, 1.13 µM
- Cc1cc(N2CCC3(CCN(c4nc(-c5cc(Cl)cc(Cl)c5)no4)C3)C2)ccn1 (stereo not drawn) [Compound 4] — 99-fold lower, 0.36 µM
- Cc1cc(N2CCC(O)(CNc3nc(-c4cc(Cl)cc(Cl)c4)no3)C2)ccn1 (stereo not drawn) [Compound 56] — within 1.5-fold, 28 µM
- COc1cccc(-c2noc(N3CCCC4(CCN(c5ccnc(C)c5)CC4)C3)n2)c1 [Compound 236] — 89-fold lower, 0.4 µM
- Cc1cc(N2CC3(CCCN(c4cncc(-c5cc(Cl)cc(Cl)c5)n4)C3)C2)ccn1 [Compound 120] — 2.9-fold lower, 12.2 µM
- OCc1ncc(N2CC3(CCCN(c4nc(-c5cc(Cl)cc(Cl)c5)no4)C3)C2)cn1 [Compound 200] — 1.9-fold lower, 19 µM
- Cc1cc(N2CCC3(CCC3Nc3nc(-c4cc(Cl)cc(Cl)c4)no3)CC2)ccn1 (stereo not drawn) [Compound 230] — 3.1-fold lower, 11.5 µM
- Cc1cc(N2CCC3CN(c4nc(-c5cc(Cl)cc(Cl)c5)no4)CC3C2)ccn1 (stereo not drawn) [Compound 219] — 8.3-fold lower, 4.3 µM
- Cc1cc(N2CCC3(CCCN3c3nc(-c4cc(Cl)cc(Cl)c4)no3)C2)ccn1 (stereo not drawn) [Compound 41] — 9.1-fold lower, 3.92 µM
- Cc1cc(NC2CCCC(Nc3nc(-c4cc(Cl)cc(Cl)c4)no3)CC2)ccn1 (stereo not drawn) [Compound 7] — 7.3-fold lower, 4.85 µM

Source: US20190374526A1, “Substituted Heterocyclic Compounds as Inhibitors of PRDM9” (Merck Sharp & Dohme Corp., priority 2018, published 2019)
